According to patent publication US20250136578A1 (Kolm Therapeutics Inc., priority 2023, published 2025):
Where two headings read alike, the source gives them in different places.

What was measured:
[1] = target: AR / CBP ternary complex (Homo sapiens, UniProt P10275+Q92793); assay: Ternary complex formation assay (sandwich ELISA, AR capture, CBP antibody detection) in VCaP cell lysates; type: cell-based
In short: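 VCaP cells in 5% charcoal-stripped FBS were cultured ≥3 days and then given bifunctional compound for 1.5 h. Lysates went onto AR-antibody-coated plates. Bound CBP (or p300) was detected with a rabbit antibody plus HRP anti-rabbit, using QuantaRed chemifluorescence (ex 570/em 585) read immediately, at 5 min and at 15 min.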

[2] = test system: VCaP cells; assay: VCaP growth inhibition assay (CTG); type: cell-based; conditions: Homo sapiens, 216 h, 30 pM R1881, 9 days
Experimental: VCaP cells (ATCC Cat #CRL-2876) are plated at 1×10^4 cells per well of a white plastic 96-well cluster plate (Thermo Scientific Nunc Cat #165306) in 100 uL phenol red-free DMEM (Gibco Cat #21063-029) media with 5% CSS (Omega Scientific Cat #FB-04). Cluster plates are returned to the incubator (37*C/5% CO2) for 72 hours prior to treatment. Just prior to treatment, 100 uL of phenol red-free DMEM/5% CSS and 60 pM R1881 (Sigma Cat #R0908-10 mg) was added to each well of the cluster plates (Final R1881 concentration=30 pM). Compounds (200X) were added to each well in a volume of 1 uL, with serial dilutions (1:5) from 20 uM to 2 pM (final concentrations in well are 100 nM to 10 fM). Cluster plates are returned to the incubator for 9 days.
After the 9-day treatment period, media was removed from the cluster plates by inversion and 100 uL room temperature CTG reagent (Promega Cat #G7573) is added to each well. The cluster plates are placed on a shaker and incubated at room temperature for 20 minutes. Following this shaking/incubation, cluster plates are read on a luminometer (BMG ClarioStar). IC50 values are obtained by graphing the RLU data vs. compound concentration with nonlinear regression 4-parameter logistic curves (GraphPad Prism).

[3] = treated 1.5 hours, rabbit CBP or p300 antibody detection, average, read-out: Average Ternary Complex

AR / CBP ternary complex, sequence (P10275 whole entry): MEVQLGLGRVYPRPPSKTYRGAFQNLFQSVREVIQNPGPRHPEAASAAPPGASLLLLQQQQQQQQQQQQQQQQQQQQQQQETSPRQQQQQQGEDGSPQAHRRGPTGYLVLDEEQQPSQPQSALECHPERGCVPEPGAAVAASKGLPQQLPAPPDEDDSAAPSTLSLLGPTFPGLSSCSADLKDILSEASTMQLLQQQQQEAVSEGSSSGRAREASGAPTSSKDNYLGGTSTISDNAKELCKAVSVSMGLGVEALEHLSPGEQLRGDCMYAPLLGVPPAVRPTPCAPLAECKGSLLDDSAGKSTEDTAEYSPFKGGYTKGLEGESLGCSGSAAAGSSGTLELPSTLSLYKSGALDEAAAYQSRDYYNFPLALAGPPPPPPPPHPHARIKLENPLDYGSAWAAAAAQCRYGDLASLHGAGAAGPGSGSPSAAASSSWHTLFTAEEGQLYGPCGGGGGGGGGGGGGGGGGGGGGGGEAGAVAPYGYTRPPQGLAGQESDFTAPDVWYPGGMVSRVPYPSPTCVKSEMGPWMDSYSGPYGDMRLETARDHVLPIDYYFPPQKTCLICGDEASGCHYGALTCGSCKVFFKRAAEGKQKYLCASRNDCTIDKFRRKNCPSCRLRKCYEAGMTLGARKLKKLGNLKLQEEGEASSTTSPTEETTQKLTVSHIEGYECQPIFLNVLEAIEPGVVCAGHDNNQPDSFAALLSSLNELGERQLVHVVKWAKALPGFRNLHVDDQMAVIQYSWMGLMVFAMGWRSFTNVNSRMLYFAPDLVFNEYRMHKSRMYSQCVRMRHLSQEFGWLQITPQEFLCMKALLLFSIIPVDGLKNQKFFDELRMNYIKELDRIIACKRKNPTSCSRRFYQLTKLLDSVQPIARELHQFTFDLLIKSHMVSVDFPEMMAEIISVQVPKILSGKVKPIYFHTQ
AR / CBP ternary complex, sequence (Q92793 2-2442): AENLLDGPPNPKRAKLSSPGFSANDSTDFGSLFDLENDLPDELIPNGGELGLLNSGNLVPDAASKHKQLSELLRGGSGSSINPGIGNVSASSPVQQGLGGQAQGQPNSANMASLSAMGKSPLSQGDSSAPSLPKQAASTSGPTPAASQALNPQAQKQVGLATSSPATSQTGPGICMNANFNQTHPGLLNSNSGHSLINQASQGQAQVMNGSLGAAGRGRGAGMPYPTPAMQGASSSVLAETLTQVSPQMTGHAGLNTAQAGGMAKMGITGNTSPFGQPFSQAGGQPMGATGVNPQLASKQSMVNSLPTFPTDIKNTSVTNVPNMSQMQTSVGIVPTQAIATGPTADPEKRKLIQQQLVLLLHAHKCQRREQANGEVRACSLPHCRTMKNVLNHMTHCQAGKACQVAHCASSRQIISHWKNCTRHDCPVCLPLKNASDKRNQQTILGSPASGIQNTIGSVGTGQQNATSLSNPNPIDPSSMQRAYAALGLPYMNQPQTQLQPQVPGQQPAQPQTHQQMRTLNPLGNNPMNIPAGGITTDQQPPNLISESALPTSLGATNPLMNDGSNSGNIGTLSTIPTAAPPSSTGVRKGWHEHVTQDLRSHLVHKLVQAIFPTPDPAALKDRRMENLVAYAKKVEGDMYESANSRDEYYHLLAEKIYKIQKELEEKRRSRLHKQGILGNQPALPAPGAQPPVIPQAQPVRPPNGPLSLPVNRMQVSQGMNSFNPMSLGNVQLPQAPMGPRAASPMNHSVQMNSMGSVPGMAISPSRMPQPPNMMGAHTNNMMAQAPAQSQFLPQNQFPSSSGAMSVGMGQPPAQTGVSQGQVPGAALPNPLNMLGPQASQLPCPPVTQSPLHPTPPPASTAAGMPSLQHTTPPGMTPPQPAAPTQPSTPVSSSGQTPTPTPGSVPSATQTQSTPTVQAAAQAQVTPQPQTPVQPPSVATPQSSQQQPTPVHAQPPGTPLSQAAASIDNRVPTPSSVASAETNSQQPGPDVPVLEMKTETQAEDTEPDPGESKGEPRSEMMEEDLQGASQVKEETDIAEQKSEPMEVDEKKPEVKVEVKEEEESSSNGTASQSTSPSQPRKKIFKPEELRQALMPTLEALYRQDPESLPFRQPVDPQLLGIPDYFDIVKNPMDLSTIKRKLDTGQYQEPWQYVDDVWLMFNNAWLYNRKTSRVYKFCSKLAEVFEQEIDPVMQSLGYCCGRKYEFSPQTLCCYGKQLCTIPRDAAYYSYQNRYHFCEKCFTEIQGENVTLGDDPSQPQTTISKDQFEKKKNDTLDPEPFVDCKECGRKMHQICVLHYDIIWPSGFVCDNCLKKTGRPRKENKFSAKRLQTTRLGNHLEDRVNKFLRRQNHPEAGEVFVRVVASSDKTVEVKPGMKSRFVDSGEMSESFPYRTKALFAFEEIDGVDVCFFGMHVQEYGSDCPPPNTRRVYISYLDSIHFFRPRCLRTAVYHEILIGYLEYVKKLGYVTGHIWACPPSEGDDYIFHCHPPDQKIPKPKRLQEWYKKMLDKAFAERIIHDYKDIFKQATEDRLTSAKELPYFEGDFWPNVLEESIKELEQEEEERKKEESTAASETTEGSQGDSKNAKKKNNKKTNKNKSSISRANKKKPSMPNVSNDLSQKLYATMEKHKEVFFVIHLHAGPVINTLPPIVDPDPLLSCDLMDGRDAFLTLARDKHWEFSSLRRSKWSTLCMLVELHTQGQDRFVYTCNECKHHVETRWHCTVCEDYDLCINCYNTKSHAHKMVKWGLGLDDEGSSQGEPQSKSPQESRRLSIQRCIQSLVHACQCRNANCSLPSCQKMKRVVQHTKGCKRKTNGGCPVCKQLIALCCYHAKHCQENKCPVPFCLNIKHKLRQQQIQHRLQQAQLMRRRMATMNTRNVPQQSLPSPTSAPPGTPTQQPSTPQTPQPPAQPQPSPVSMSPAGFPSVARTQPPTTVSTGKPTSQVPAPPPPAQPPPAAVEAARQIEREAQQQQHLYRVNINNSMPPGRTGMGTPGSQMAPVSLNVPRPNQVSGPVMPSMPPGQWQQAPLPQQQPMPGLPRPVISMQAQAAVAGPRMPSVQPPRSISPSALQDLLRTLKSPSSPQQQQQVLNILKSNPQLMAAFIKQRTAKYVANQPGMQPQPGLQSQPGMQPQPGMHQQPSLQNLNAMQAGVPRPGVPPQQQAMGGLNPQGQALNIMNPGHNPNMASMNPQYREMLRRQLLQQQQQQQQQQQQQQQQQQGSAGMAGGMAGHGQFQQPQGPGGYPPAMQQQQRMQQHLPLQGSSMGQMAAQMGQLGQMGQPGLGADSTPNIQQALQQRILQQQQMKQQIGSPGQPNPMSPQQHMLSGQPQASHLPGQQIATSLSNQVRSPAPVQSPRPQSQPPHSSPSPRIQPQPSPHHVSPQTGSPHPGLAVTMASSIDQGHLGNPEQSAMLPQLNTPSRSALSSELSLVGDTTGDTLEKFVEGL

| Compound | EC50 [1, 3] [nM] | IC50 [2] [nM] | EC50 ([1]; read-out: Average Ternary Complex, treated 1.5 hours, rabbit CBP or p300 antibody detection) [nM] |
| --- | --- | --- | --- |
| COc1cc2c(cn1)N(c1nn(C3CCN(CC4CCN(c5ccc(C(=O)N[C@H]6CC[C@H](Oc7ccc(C#N)c(Cl)c7)CC6)nn5)CC4)CC3)c3c1CN(C(C)=O)CC3)CCC2 [Compound 109, 6-[4-[[4-[5-acetyl-3-(6-methoxy-3,4-dihydro-2H-1,7-naphthyridin-1-yl)-6,7-dihydro-4H-pyrazolo[4,3-c]pyridin-1-yl]-1-piperidyl]methyl]-1-piperidyl]-N-[4-(3-chloro-4-cyano-phenoxy)cyclohexyl]pyridazine-3-carboxamide] | 10 to 100 | 0.1 to 1 |  |
| CC(=O)N1CCc2c(c(N3CCCc4cc(-c5cnn(C)c5)c(C(F)F)cc43)nn2C2CCN(C[C@H]3CCN(c4ccc(C(=O)N[C@H]5CC[C@H](Oc6ccc(C#N)c(Cl)c6)CC5)nn4)C[C@H]3C)CC2)C1 [Compound 234] | < 1 | ≤ 0.1 |  |
| CC(=O)N1CCc2c(c(N3CCCc4cc(-c5cnn(C)c5)c(C(F)F)cc43)nn2C2CCN(C3CC4(CCN(c5ccc(C(=O)N[C@H]6CC[C@H](Oc7ccc(C#N)c(Cl)c7)CC6)nn5)CC4)C3)CC2)C1 [Compound 176, 6-[2-[4-[5-acetyl-3-[7-(difluoromethyl)-6-(1-methylpyrazol-4-yl)-3,4-dihydro-2H-quinolin-1-yl]-6,7-dihydro-4H-pyrazolo[4,3-c]pyridin-1-yl]-1-piperidyl]-7-azaspiro[3.5]nonan-7-yl]-N-[4-(3-chloro-4-cyano-phenoxy)cyclohexyl]pyridazine-3-carboxamide] | < 1 | 0.1 to 1 |  |
| CC(=O)N1CCc2c(c(-c3cccc4cc(-c5cnn(CCC6CCN(c7ccc(C(=O)N[C@H]8CC[C@H](Oc9ccc(C#N)c(Cl)c9)CC8)nn7)CC6)c5)ncc34)nn2C2COC2)C1 [Compound 84, 6-[4-[2-[4-[8-[5-acetyl-1-(oxetan-3-yl)-6,7-dihydro-4H-pyrazolo[4,3-c]pyridin-3-yl]-3-isoquinolyl]pyrazol-1-yl]ethyl]-1-piperidyl]-N-[4-(3-chloro-4-cyano-phenoxy)cyclohexyl]pyridazine-3-carboxamide] | < 1 | 0.1 to 1 |  |
| CC(=O)N1CCc2c(c(N3CCCc4cc(-c5cnn(C)c5)c(C)cc43)nn2C2CCN(C3CCC4(CC3)CN(c3ccc(C(=O)N[C@H]5CC[C@H](Oc6ccc(C#N)c(C)c6)CC5)nn3)C4)CC2)C1 [Compound 298, 6-[7-[4-[5-acetyl-3-[7-methyl-6-(1-methylpyrazol-4-yl)-3,4-dihydro-2H-quinolin-1-yl]-6,7-dihydro-4H-pyrazolo[4,3-c]pyridin-1-yl]-1-piperidyl]-2-azaspiro[3.5]nonan-2-yl]-N-[4-(4-cyano-3-methyl-phenoxy)cyclohexyl] pyridazine-3-carboxamide] | < 1 | 0.1 to 1 |  |
| CC(=O)N1CCc2c(c(N3CCCc4cc(C#N)ncc43)nn2C2CCN(C(=O)C3CCN(c4ccc(C(=O)N[C@H]5CC[C@H](Oc6ccc(C#N)c(Cl)c6)CC5)nn4)CC3)CC2)C1 [Compound 69, 6-[4-[4-[5-acetyl-3-(6-cyano-3,4-dihydro-2H-1,7-naphthyridin-1-yl)-6,7-dihydro-4H-pyrazolo[4,3-c]pyridin-1-yl]piperidine-1-carbonyl]-1-piperidyl]-N-[4-(3-chloro-4-cyano-phenoxy)cyclohexyl]pyridazine-3-carboxamide] | < 1 | ≤ 0.1 |  |
| CC(=O)N1CCc2c(c(-c3cccc4cc(-c5cnn(CCOC6CCN(c7ccc(C(=O)N[C@H]8CC[C@H](Oc9ccc(C#N)c(Cl)c9)CC8)nn7)CC6)c5)ncc34)nn2C2CCOCC2)C1 [Compound 26, 6-[4-[2-[4-[8-(5-acetyl-1-tetrahydropyran-4-yl-6,7-dihydro-4H-pyrazolo[4,3-c]pyridin-3-yl)-3-isoquinolyl]pyrazol-1-yl]ethoxy]-1-piperidyl]-N-[4-(3-chloro-4-cyano-phenoxy)cyclohexyl]pyridazine-3-carboxamide] | < 1 | ≤ 0.1 |  |
| CC(=O)N1CCc2c(c(-c3cccc4ccncc34)nn2C2CCN(CC3CCN(c4ccc(C(=O)N[C@H]5CC[C@H](Oc6ccc(C#N)c(Cl)c6)CC5)nn4)CC3)CC2)C1 [Compound 120, 6-[4-[[4-[5-acetyl-3-(8-isoquinolyl)-6,7-dihydro-4H-pyrazolo[4,3-c]pyridin-1-yl]-1-piperidyl]methyl]-1-piperidyl]-N-[4-(3-chloro-4-cyano-phenoxy)cyclohexyl]pyridazine-3-carboxamide] | < 1 | 0.1 to 1 |  |
| CC(=O)N1CCc2c(c(N3CCCc4cc(C#N)ccc43)nn2C2CCN(C[C@H]3CCN(c4ccc(C(=O)N[C@H]5CC[C@H](Oc6ccc(C#N)c(Cl)c6)CC5)nn4)C[C@@H]3C)CC2)C1 (stereo in doubt) [Compound 105, 6-[4-[[4-[5-acetyl-3-(6-cyano-3,4-dihydro-2H-quinolin-1-yl)-6,7-dihydro-4H-pyrazolo[4,3-c]pyridin-1-yl]-1-piperidyl]methyl]-3-methyl-1-piperidyl]-N-[4-(3-chloro-4-cyano-phenoxy)cyclohexyl]pyridazine-3-carboxamide] | < 1 | 0.1 to 1 |  |
| CC(=O)N1CCc2c(c(N3CCCc4cc(-c5cnn(C)c5)c(C(F)F)cc43)nn2C2CCN(CC3C4CC3CN(c3ccc(C(=O)N[C@H]5CC[C@H](Oc6ccc(C#N)c(Cl)c6)CC5)nn3)C4)CC2)C1 (stereo partly drawn) [Compound 118, 6-[6-[[4-[5-acetyl-3-[7-(difluoromethyl)-6-(1-methylpyrazol-4-yl)-3,4-dihydro-2H-quinolin-1-yl]-6,7-dihydro-4H-pyrazolo[4,3-c]pyridin-1-yl]-1-piperidyl]methyl]-3-azabicyclo [3.1.1]heptan-3-yl]-N-[4-(3-chloro-4-cyano-phenoxy)cyclohexyl] pyridazine-3-carboxamide] |  | 0.1 to 1 | < 1 |
| CC(=O)N1CCc2c(c(-c3cccc4cc(-c5cnn(C)c5)ncc34)nn2C2CCN(C(=O)C3CCN(c4ccc(C(=O)N[C@H]5CC[C@H](Oc6ccc(C#N)c(Cl)c6)CC5)cc4)CC3)CC2)C1 [Compound 164, 4-[4-[4-[5-acetyl-3-[3-(1-methylpyrazol-4-yl)-8-isoquinolyl]-6,7-dihydro-4H-pyrazolo[4,3-c]pyridin-1-yl]piperidine-1-carbonyl]-1-piperidyl]-N-[4-(3-chloro-4-cyano-phenoxy)cyclohexyl]benzamide] | < 1 | 0.1 to 1 |  |
| CC(=O)N1CCc2c(c(-c3cccc4cc(C5CC5)ncc34)nn2C2CCN(C(=O)C3CCN(c4ccc(C(=O)N[C@H]5CC[C@H](Oc6ccc(C#N)c(Cl)c6)CC5)nn4)CC3)CC2)C1 [Compound 170, 6-[4-[4-[5-acetyl-3-(3-cyclopropyl-8-isoquinolyl)-6,7-dihydro-4H-pyrazolo[4,3-c]pyridin-1-yl]piperidine1-carbonyl]-1-piperidyl]-N-[4-(3-chloro-4-cyano-phenoxy)cyclohexyl]pyridazine-3-carboxamide] | < 1 | 0.1 to 1 |  |
| CC(=O)N1CCc2c(c(N3CCCc4cc(-c5cnn(C)c5)c(C(F)F)cc43)nn2[C@H]2CC[C@@H](C3CCC4(CC3)CN(c3ccc(C(=O)N[C@H]5CC[C@H](Oc6ccc(C#N)c(Cl)c6)CC5)nn3)C4)CC2)C1 [Compound 242, 6-[7-[4-[5-acetyl-3-[7-(difluoromethyl)-6-(1-methylpyrazol-4-yl)-3,4-dihydro-2H-quinolin-1-yl]-6,7-dihydro-4H-pyrazolo[4,3-c]pyridin-1-yl]cyclohexyl]-2-azaspiro[3.5]nonan-2-yl]-N-[4-(3-chloro-4-cyano-phenoxy)cyclohexyl]pyridazine-3-carboxamide] | < 1 | 0.1 to 1 |  |
| CC(=O)N1CCc2c(c(-c3cccc4cc(-c5ccc(CCC6CCN(c7ccc(C(=O)N[C@H]8CC[C@H](Oc9ccc(C#N)c(Cl)c9)CC8)nn7)CC6)nc5)ncc34)nn2C)C1 [Compound 20, 6-[4-[2-[5-[8-(5-acetyl-1-methyl-6,7-dihydro-4H-pyrazolo[4,3-c]pyridin-3-yl)-3-isoquinolyl]-2-pyridyl]ethyl]-1-piperidyl]-N-[4-(3-chloro-4-cyano-phenoxy)cyclohexyl]pyridazine-3-carboxamide] | < 1 | ≤ 0.1 |  |
| CC(=O)N1CCc2c(c(N3CCCc4cc(-c5cnn(C)c5)c(C(F)F)cc43)nn2C2CCN([C@H]3C[C@H](Oc4ccc(C(=O)N[C@H]5CC[C@H](Oc6ccc(C#N)c(Cl)c6)CC5)nn4)C3)CC2)C1 [Compound 240, 6-[3-[4-[5-acetyl-3-[7-(difluoromethyl)-6-(1-methylpyrazol-4-yl)-3,4-dihydro-2H-quinolin-1-yl]-6,7-dihydro-4H-pyrazolo[4,3-c]pyridin-1-yl]-1-piperidyl]cyclobutoxy]-N-[4-(3-chloro-4-cyano-phenoxy)cyclohexyl]pyridazine-3-carboxamide] | < 1 | 0.1 to 1 |  |
